According to patent US7468366B2, “Cytotoxic agents” (Rutgers, The State University of New Jersey, priority 2001, dated 2008):

| melting point | Compound |
| --- | --- |
| 299 °C | CCCCn1c(=O)c2cc(OC)c(OC)cc2c2nnc3cc4c(cc3c21)OCO4 [Example 10, 2,3-Dimethoxy-8,9-methylenedioxy-11-(n-butyl)-11H-5,6,11-triazachrysen-12-one] |
| 239 to 242 °C (dec.) | COc1cc2c(cc1OC)-c1cnc3cc4c(cc3c1OC2)OCO4 [Example 12, 8,9-Dimethoxy-2,3-methylenedioxy-6H-5-oxa-12-aza-chrysene] |
| 224 °C (dec.) | CCCCn1c(=O)c2cc(OC)c(OC)cc2c2cnc3cc4c(cc3c21)OCO4 [Example 11, 8,9-Dimethoxy-2,3-methylenedioxy-5-(butyl)-5H-dibenzo[c,h]1,6-naphthyridin-6-one] |
